# In US20100029683A1, “Methods for regulating cell mitosis by inhibiting serine/threonine phosphateses” (priority 2008, published 2010):
# Columns and labels:
# U87MG cells [1] = assay: Cellular and molecular changes in U87MG cells (immunofluorescence, Western blots); type: cell-based, human; conditions: 2.5 uM
# Description: FIG. 11A-G: Cellular and molecular changes in U87 cells induced by compound 102 at 2.5 uM after 24 hour exposure (A-D, F, G) and after 3 hours ([…]).
# A, Nuclear changes in U87 cells in unsynchronized logarithmic growth (upper panel, green immunofluorescence [IFS] GFP labeled-actin α and lower panel, blue DAPI staining). Numerous irregular nuclei with clumped chromatin in compound 102 treated cells are indicated by arrows. B, Disordered microtubules (green IFS tubulin-α and red IFS pPlk-1-Tre 210) and irregular clumped chromatin (blue DAPI) C, Western blots of U87 lysates: pAkt-1, total Akt-1, and β-actin. D, Western blots of U87 lysates: TCTP, pPlk (Tre-210), total Plk, and β-actin. E, IFS of TCTP in U87 cells, F, Western blots p53 (ser-15), pMDM2 (ser-166), and β-actin and G, IFS of p53 (ser-15).
# TCTP is an abundant, highly conserved, multifunctional protein that binds to and stabilizes microtubules before and after mitosis and also exerts potent anti-apoptotic activity (Bommer and Thiele, 2004; Yarm, 2002; Susini et al, 2008) (FIG. 11E).
# U87MG = assay: Western blots of pAkt, p53 and MDM2 in U87MG cells after 24 hours; type: cell-based, human; conditions: compound 102 2.5 uM, TMZ 25 uM, DOX 2 uM
# Description: (§1) 5×10^6 U87MG cells were inoculated s.c. into each flank of 20 SCID mice. When the xenografts were 0.5±0.1 cm (day 0), 5 animals each received i.p. vehicle alone days 1-12 (50% DMSO/H2O); compound 102 alone at 1.5 mg/kg days 1-3,5-7, & 9-11; TMZ alone at 80 mg/kg days 4, 8, 12; or both drugs at the same doses and schedules. If xenografts reached 1800 mm^3, animals were sacrificed. […] B, Survival curve combining the data from the study shown in FIG. 12A, with a second identical study involving a total of 10 animals with two xenografts each. Disease-free survival was defined as no recurrence of either xenografts. […] As in 12A, except that xenografts of SH-SY5Y cells were implanted in one flank only and animals were treated with one additional cycle of drugs, i.e., compound 102 on days 13-15, TMZ, on day 16, and compound 102 plus TMZ on the same schedules. […] E, Western blots of U87 cells in culture 24 hours after exposure to compound 102 at 2.5 uM, TMZ at 25 uM or DOX at 2 uM, and compound 102 plus TMZ or DOX. F, Western blots of U373 cells 24 hours after exposure to compound 102 at 2.5 uM, doxorubicin at 2 uM, and both drugs. G, Western blots of U373 cells 24 hours after exposure to TMZ at 25 uM, okadaic acid at 2 nM, and both drugs.
# The effects of compound 102, TMZ, doxorubicin (DOX), a widely used anti-cancer drug that disrupts DNA replication, compound 102 plus TMZ, and compound 102 plus DOX on the amount of pAkt, p53 and MDM2 in U87MG, a cell line with wild-type p53, and in U373, a cell line with mutant p53 (Short et al, 2007) were assessed by Western blots.
# U87MG cells [2] = assay: Cell cycle distribution of U87MG cells by FACS after 48 hours; type: cell-based, human
# Description: (§2) Cells in unsynchronized logarithmic growth were exposed to vehicle or drug and adherent cells and cells in the media were collected. Harvested cells were fixed with 70% cold ethanol for 20 min at −20 degrees, washed with PBS, and stained with 10 ug/ml of PI and 1 ug/ml RNAse in TBS for 30 minutes and analyzed by FACS. A, Flow cytometry profiles of U87 cells after exposures to DMSO only, compound 102 only, 5 uM; TMZ only, 25 uM; compound 102 with TMZ combination, doxorubicin only, 2.0 uM and compound 102 with doxorubicin combination. B, Flow cytometry profiles of U373 cells.
# (§3) We analyzed cell cycle patterns of U87MG and U373 cells 48 hours after exposure to TMZ or DOX alone and in combination with compound 102.
# PP1 = PP1 (Homo sapiens, UniProt P62136); assay: Inhibition of purified PP1 (Ser/Thr Phosphatase Assay Kit 1); type: biochemical
# Excerpt: (§4) Inhibition of PP2A and PP1 activity by compound 102 on purified PP1 and PP2A (mean and s.d.; n=3) (Ser/Thr Phosphatase Assay Kit 1, Millipore, Billerica, Mass.)
# U87 cells [3] = assay: U87 cell growth in vitro, viable cell count; type: cell-based, human; conditions: U87 cells (FIG. 6), read-out: IC50, inhibition of GBM cell growth
# Description: FIG. 6: Effect of compound 102 on U87 cells in vitro at 1 uM; 2 uM; 5 uM; and 10 uM.
# Viable cells were counted (mean and s.d.; n=3; Coulter particle counter).
# PP2A [4] = target: PP2A (Homo sapiens, UniProt P67775); assay: Inhibition of purified PP2A (Ser/Thr Phosphatase Assay Kit 1); type: biochemical
# Excerpt: as §4
# U87 cells [5] = assay: Immunofluorescence staining of p53; type: cell-based, human; conditions: 24 hour exposure, compound 102 2.5 uM, TMZ 25 uM
# U87MG xenografts = assay: U87MG s.c. xenografts in SCID mice, compound 102 with TMZ; type: in vivo
# Description: as §1
# To determine the impact of altering DNA-damage defense mechanisms by inhibiting PP2A on the efficacy of cytotoxic chemotherapy, the effects of compound 102 combined with TMZ, a non-specific DNA-methylating drug, routinely used for the palliative treatment of GBM patients (Prados et al, 2008), were studied. SCID mice bearing s.c. xenografts of either the GBM line U87MG or the neuroblastoma line SH-SY5Y were treated with vehicle alone, compound 102 alone, TMZ alone, or both drugs at the same doses and schedules as when given alone.
# [6] = Solubility character of lead compounds; type: physicochemical
# [7] = system: DAOY medulloblastoma cells; assay: DAOY medulloblastoma s.c. xenografts in SCID mice; type: in vivo; conditions: treatment from day 6, measured to day 23
# Description: DAOY medulloblastoma cells were implanted subcutaneously into the flanks of SCID mice. On day 6, mice were divided into 3 groups, one group receiving Compound 100, one group receiving Compound 102, and one group receiving vehicle alone. The subcutaneous tumor masses were measured on day 6, day 13, day 18, and on day 23 when all animals were sacrificed. […] In this model DAOY cells, when untreated, reached their maximum growth about 2 weeks after implantation with slow regression thereafterwards.
# SH-SY5Y xenografts = assay: SH-SY5Y neuroblastoma s.c. xenografts in SCID mice, compound 102 with TMZ; type: in vivo; conditions: as U87MG study plus one additional cycle of drugs; followed 7 weeks
# Description: 5×10^6 U87MG cells were inoculated s.c. into each flank of 20 SCID mice. When the xenografts were 0.5±0.1 cm (day 0), 5 animals each received i.p. vehicle alone days 1-12 (50% DMSO/H2O); compound 102 alone at 1.5 mg/kg days 1-3,5-7, & 9-11; TMZ alone at 80 mg/kg days 4, 8, 12; or both drugs at the same doses and schedules. If xenografts reached 1800 mm^3, animals were sacrificed. […] B, Survival curve combining the data from the study shown in FIG. 12A, with a second identical study involving a total of 10 animals with two xenografts each. Disease-free survival was defined as no recurrence of either xenografts. […] As in 12A, except that xenografts of SH-SY5Y cells were implanted in one flank only and animals were treated with one additional cycle of drugs, i.e., compound 102 on days 13-15, TMZ, on day 16, and compound 102 plus TMZ on the same schedules. […] E, Western blots of U87 cells in culture 24 hours after exposure to compound 102 at 2.5 uM, TMZ at 25 uM or DOX at 2 uM, and compound 102 plus TMZ or DOX. F, Western blots of U373 cells 24 hours after exposure to compound 102 at 2.5 uM, doxorubicin at 2 uM, and both drugs. G, Western blots of U373 cells 24 hours after exposure to TMZ at 25 uM, okadaic acid at 2 nM, and both drugs. […]
# NB xenografts = assay: Histologic examination of xenografts 24 hours after a single i.p. injection; type: in vivo, SCID mice; conditions: 24 hours after single i.p. injection
# PP2A [8] = assay: PP2A activity in U87 s.c. xenografts and normal brain of SCID mice after i.p. injection; type: in vivo; conditions: single dose 1.5 mg/kg i.p.
# Description: PP2A activity in U87 s.c. xenografts (blue) and in normal brain tissue (yellow) of SCID mice at different times after i.p. injection of 1.5 mg/kg compound 102 (one mouse per point; each lysate was measured in triplicate: mean and s.d.)
# U373 cells [9] = assay: Cell cycle distribution of U373 cells by FACS after 48 hours; type: cell-based, human; conditions: U373, 48 hours
# Description: as §2, §3
# U373 = assay: Inhibition of U373 glioblastoma cells after 7 days in culture, alone and in combination; type: cell-based, human; conditions: Compound 100 2.5 μM, cisplatin 0.1 μM, doxorubicin 0.01 μM, taxol 0.3 nM, each alone
# Description: Cells were exposed to vehicle alone (control); Compound 100 at 2.5 uM; cisplatin at 0.1 uM; doxorubicin at 0.01 uM; or taxol at 0.3 nM alone or to the combination of Compound 100 plus each of the standard agents at the same concentrations. […] The expected percent inhibition at 7 days is the product of the inhibition by each agent alone.
# Cells were exposed to vehicle alone (control); compound 100 at 2.5 μM, cisplatin at 0.1 μM; doxorubicin at 0.01 μM; or taxol at 0.3 nM alone or to the combination of compound 100 plus each of the standard agents at the same concentrations. […] The expected percent inhibition from a combination of drugs is calculated by multiplying the actual percent inhibition by each drug alone and comparing that product to the actual percent inhibition caused by the combination of the two drugs (Valeriote, 1975). The expected percent inhibition at 7 days is the product of the inhibition by each agent alone.
# U373 cells [10] = assay: Western blots of pAkt-1, p53 and MDM2 in U373 cells after 24 hours; type: cell-based, human; conditions: U373, 2 nM
# Description: as §1
# PP1, sequence (P62136 whole entry): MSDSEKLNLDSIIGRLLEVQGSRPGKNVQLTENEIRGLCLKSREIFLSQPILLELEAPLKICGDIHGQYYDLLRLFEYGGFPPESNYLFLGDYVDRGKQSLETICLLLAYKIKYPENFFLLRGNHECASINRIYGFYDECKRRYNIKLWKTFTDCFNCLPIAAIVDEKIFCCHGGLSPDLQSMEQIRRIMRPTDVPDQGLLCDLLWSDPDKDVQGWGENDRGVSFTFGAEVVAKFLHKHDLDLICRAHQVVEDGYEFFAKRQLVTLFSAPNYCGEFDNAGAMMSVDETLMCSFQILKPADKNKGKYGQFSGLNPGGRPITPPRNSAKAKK
# PP2A (Homo sapiens, UniProt P67775), sequence (P67775 whole entry): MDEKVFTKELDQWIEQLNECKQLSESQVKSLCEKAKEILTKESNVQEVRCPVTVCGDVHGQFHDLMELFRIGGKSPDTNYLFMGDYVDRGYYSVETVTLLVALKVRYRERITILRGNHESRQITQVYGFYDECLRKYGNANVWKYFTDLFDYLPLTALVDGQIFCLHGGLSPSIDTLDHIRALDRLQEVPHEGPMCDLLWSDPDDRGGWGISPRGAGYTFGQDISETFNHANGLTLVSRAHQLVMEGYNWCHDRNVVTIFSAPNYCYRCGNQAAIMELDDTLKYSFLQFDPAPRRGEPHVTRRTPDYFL
smiles,measurement,setting,value
CC(C)(C)OC(=O)N1CCN(C(=O)C2C(C(=O)O)[C@H]3CC[C@@H]2O3)CC1 (stereo partly shown) [Compound 102],p53 abundance,U87MG cells [1],decreased the abundance of p53
same,phosphorylated MDM2,U87MG cells [1],increased phosphorylated MDM2
same,TCTP abundance,U87MG cells [1]; 24 hour exposure,marked decrease in translationally controlled tumor protein
same,microtubule and mitotic morphology (mitotic catastrophe),U87MG cells [1]; 24 hour exposure,appearance of disordered microtubules and abnormal mitotic figures
same,phosphorylated Akt-1,U87MG cells [1]; 24 hour exposure,increased phosphorylated Akt-1
same,phosphorylated Plk-1,U87MG cells [1]; 24 hour exposure,increased phosphorylated Plk-1
same,MDM2 on Western blot,U87MG,increased both pAkt-1 and MDM2
same,p53 on Western blot,U87MG,eliminated p53
same,pAkt-1 on Western blot,U87MG,increased both pAkt-1 and MDM2
same,G1 phase cells,U87MG cells [2],decreased G1
same,G2/M phase cells,U87MG cells [2],prominently increased G2/M
same,S phase cells,U87MG cells [2],modestly increased S
same,IC50,PP1,~80 µM
same,IC50,U87 cells [3],~4 µM
same,IC50,PP2A [4],~0.4 µM
same,intracellular levels of p53 by immunofluorescence,U87 cells [5],reduction of intracellular levels of p53
same,time of sacrifice (xenografts reached 1800 mm^3),"U87MG xenografts; U87 xenografts, for the combination only the 3 mice with recurrence",4-5 week
same,growth of GBM (U87MG) xenografts,"U87MG xenografts; compound 102 1.5 mg/kg i.p. days 1-3, 5-7, 9-11, TMZ 80 mg/kg days 4, 8, 12",minimally delayed growth
same,GBM xenografts: animals with complete regression without recurrence,"U87MG xenografts; compound 102 combined with temozolomide, greater than 28 weeks",50%
same,solubility character,[6],lipid soluble
same,DAOY s.c. tumor mass,[7],marked regression of the tumor by day 23
same,growth of NB (SH-SY5Y) xenografts,SH-SY5Y xenografts,completely suppressed growth for 2 weeks
same,cells with decreased cell size / small pyknotic nuclei,NB xenografts,~50%
same,PP2A activity in normal brain tissue,PP2A [8],inhibits PP2A activity
same,PP2A activity in s.c. xenografts of U87 MG,PP2A [8],inhibits PP2A activity
same,cell cycle profile,U373 cells [9],no effect on this profile
N.N.[Cl][Pt][Cl] [cisplatin],"inhibition at 7 days, agent alone",U373,93.5%
CC(=O)O[C@H]1C(=O)[C@@]2(C)[C@H]([C@H](OC(=O)c3ccccc3)[C@]3(O)C[C@H](OC(=O)[C@H](O)[C@@H](NC(=O)c4ccccc4)c4ccccc4)C(C)=C1C3(C)C)[C@]1(OC(C)=O)CO[C@@H]1C[C@@H]2O [Taxol],"inhibition at 7 days, agent alone",U373,114%
"Cn1nnc2c(C(N)=O)ncn2c1=O [TMZ, temozolomide, reference compound]",cells with cytoplasmic swelling and vacuolization,NB xenografts,~50%
"C=C1[C@@H](O)[C@@H]2O[C@]3(CC[C@H](/C=C/[C@@H](C)[C@@H]4CC(C)=C[C@@]5(O[C@H](C[C@@](C)(O)C(=O)O)CC[C@H]5O)O4)O3)CC[C@H]2O[C@@H]1[C@@H](O)C[C@H](C)[C@H]1O[C@@]2(CCCCO2)CC[C@H]1C [Okadaic acid, okadaic acid]",effects on pAkt-1 and mutant p53,U373 cells [10],mimicked the effects of compound 102 on pAkt-1 and on mutant p53
"COc1cccc2c1C(=O)c1c(O)c3c(c(O)c1C2=O)C[C@@](O)(C(=O)CO)C[C@@H]3O[C@H]1C[C@H](N)[C@H](O)[C@H](C)O1 [DOX, doxorubicin]",MDM2 on Western blot,U87MG,little effect on MDM2
same,p53 on Western blot,U87MG,increased p53
same,pAkt-1 on Western blot,U87MG,decreased pAkt-1
same,G1 phase cells,U373 cells [9],reduced G1 and G2/M
same,G2/M phase cells,U373 cells [9],reduced G1 and G2/M
same,S phase cells,U373 cells [9],greatly increased S
same,"inhibition at 7 days, agent alone",U373,75.7%
